No end group written: not given here.
Tests used:
Format in all cases: biochemical
[1] = target: T1, β4Gal-T2 (Homo sapiens, UniProt O60909); experiment: β4Gal-T2 galactosyltransferase activity assay (soluble enzyme, media of infected Sf9 cells); conditions: for inhibition of β4Gal-T2 by high acceptor substrate concentrations: FIGS. 5A and 5B, to higher degree than bovine milk β4Gal-transferase and β4Gal-T3; for donor substrate utilisation by β4Gal-T2 (in words): with the acceptor substrates tested
T1 construct: An expression construct designed to encode amino acid residues 31-372 of β4Gal-T2 was prepared by RT-PCR; secretion signal of vector pAcGP67 (gp67 leader; own knowledge of the vector) (N); made in house; host or cells: Sf9 (Spodoptera frugiperda) cells, baculovirus; unpurified culture supernatant
T1 sequence (O60909 31-372): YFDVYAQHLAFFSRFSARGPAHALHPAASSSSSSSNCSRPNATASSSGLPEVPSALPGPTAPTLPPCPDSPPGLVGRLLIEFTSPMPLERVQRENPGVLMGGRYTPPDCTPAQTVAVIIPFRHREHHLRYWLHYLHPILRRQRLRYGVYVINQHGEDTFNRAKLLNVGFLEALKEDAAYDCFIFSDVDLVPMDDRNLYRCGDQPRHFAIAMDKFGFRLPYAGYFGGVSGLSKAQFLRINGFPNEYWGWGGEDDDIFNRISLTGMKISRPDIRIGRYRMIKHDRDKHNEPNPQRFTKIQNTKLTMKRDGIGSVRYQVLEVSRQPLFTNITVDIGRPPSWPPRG
From the text: (§1) The PCR product were cloned into the BamHI site of pAcGP67 (Pharmingen), and the construct sequenced to verify correct insertion and sequence. The plasmid pAcGP67-β4Gal-T2-sol was co-transfected with Baculo-Goldä DNA (Pharmingen) as described previously (Bennett et al., 1996). Recombinant Baculo-virus were obtained after two successive amplifications in Sf9 cells grown in serum-containing medium, and titres of virus were estimated by titration in 24-well plates with monitoring of enzyme activities. Controls included pAcGP67-β4Gal-T3-sol (Almeida et al., 1997) and pAcGP67-GalNAc-T3-sol (Bennett et al., 1996).
(§2) Standard assays were performed in […] total reaction mixtures containing 25 mM Tris (pH 7.5), 10 mM MnCl2, 0.25% Triton X-100, […] UDP-[^14C]-Gal (2,300 cpm/nmol) (Amersham), and varying concentration of acceptor substrates (Sigma) (see Table I for structures). The soluble constructs were assayed with […] of culture supernatant from infected cells, whereas the full length construct was assayed with 1% Triton X-100 homogenates of washed cells. Bovine milk P1,4Gal-transferase (Sigma) was used as control.
Reaction products were quantified by Dowex-1 chromatography. […] The transfer of Gal was evaluated after precipitation by filtration through Whatman GF/C glass fiber filters.

[2] = target: T2, β4Gal-T3 (Homo sapiens, UniProt O60512); experiment: β4Gal-T3 galactosyltransferase activity assay (soluble enzyme, Sf9 media)
T2 construct: media from Sf9 cells expressing secreted forms of either β4Gal-T2 or -T3 were used as enzyme sources; secretion signal of vector pAcGP67 (gp67 leader; own knowledge of the vector) (N); made in house; host or cells: Sf9 cells, baculovirus; unpurified culture supernatant
T2 sequence (O60512 32-393 limits assumed): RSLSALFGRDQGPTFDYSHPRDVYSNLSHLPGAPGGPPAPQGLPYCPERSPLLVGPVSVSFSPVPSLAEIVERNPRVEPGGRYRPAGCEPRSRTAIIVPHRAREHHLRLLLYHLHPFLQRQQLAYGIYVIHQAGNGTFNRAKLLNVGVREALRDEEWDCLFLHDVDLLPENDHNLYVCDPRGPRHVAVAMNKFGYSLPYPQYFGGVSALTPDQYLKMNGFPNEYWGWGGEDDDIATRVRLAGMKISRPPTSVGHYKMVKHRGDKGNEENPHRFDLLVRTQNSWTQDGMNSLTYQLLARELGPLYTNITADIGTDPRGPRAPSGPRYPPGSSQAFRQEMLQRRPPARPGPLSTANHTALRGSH
Experimental: as §1, with “An expression construct designed to encode amino acid residues 31-372 of β4Gal-T2 was prepared by RT-PCR with mRNA from Colo205 cell line, using the primer pair EBER100FOR (5′-[…]; SEQ ID NO: 9) and EBER114 (5′-[…]; SEQ ID NO: 10) with BamH1 restriction sites (FIG. 2). The PCR” for “The PCR”
as §2
(§3) Reaction products were quantified by Dowex-1 chromatography. Assays with hen egg Ovalbumin (Sigma), asialo-fetuin (Sigma), and asialo-agalacto-fetuin (Sigma, treated with bgalactosidase) were performed with the standard reaction mixture modified to contain […] UDP-Gal, 54 mM NaCl, and 0.5 mg Ovalbumin. The transfer of Gal was evaluated after precipitation by filtration through Whatman GF/C glass fiber filters.

[3] = target: T3, Bovine milk β4Gal-T (Bos taurus, UniProt P08037); experiment: Bovine milk β4Gal-transferase activity assay (control enzyme)
T3 construct: Purified bovine milk enzyme; purchased Sigma; host or cells: bovine milk
T3 sequence (P08037 79-402 limits assumed): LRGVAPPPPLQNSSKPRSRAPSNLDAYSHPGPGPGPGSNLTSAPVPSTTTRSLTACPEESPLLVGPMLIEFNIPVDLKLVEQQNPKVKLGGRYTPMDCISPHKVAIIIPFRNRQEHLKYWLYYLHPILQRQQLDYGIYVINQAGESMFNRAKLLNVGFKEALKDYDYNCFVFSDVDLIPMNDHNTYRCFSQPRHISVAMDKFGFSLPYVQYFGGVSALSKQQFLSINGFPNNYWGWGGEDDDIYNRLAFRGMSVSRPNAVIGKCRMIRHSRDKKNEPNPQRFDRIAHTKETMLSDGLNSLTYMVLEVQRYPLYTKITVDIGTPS
Experimental: as §2, §3

[4] = substrate concentration 3 mM, media of infected Sf9 cells, background subtracted
[5] = substrate concentration 1 mM, media of infected Sf9 cells, background subtracted
[6] = substrate concentration 9 mM, media of infected Sf9 cells, background subtracted

Row | Compound | β4Gal-T2 activity with acceptor substrate [1, 4] [nmol/min/mL] | β4Gal-T2 activity with acceptor substrate [1, 5] [nmol/min/mL] | β4Gal-T2 activity with acceptor substrate [1, 6] [nmol/min/mL] | also measured
1 | CC(=O)N[C@H]1[C@H](Oc2ccc3c(C)cc(=O)oc3c2)O[C@H](CO)[C@H](O)[C@@H]1O [4-Me-lumb-β-D-GalNAc] | 0.0 |  |  | 
2 | Cc1cc(=O)oc2cc(O[C@@H]3O[C@H](CO)[C@H](O)[C@H](O)[C@H]3O)ccc12 [4-Me-lumb-β-D-Gal] | 0.0 |  |  | 
3 | CC(=O)N[C@H]1[C@H](Oc2ccc3c(C)cc(=O)oc3c2)O[C@H](CO)[C@@H](O)[C@@H]1O [4-Me-lumb-β-D-GlcNAc] | 0.6 | 0.8 | 0.4 | 
4 | CC(=O)N[C@H]1[C@@H](OCc2ccccc2)O[C@H](CO)[C@@H](O)[C@@H]1O [Bz-α-D-GlcNAc] | 1.1 | 0.4 | 1.7 | 
5 | CC(=O)N[C@H]1[C@H](OCc2ccccc2)O[C@H](CO)[C@@H](O)[C@@H]1O [Bz-β-D-GlcNAc] | 3.6 | 6.8 | 1.5 | β4Gal-T3 activity with acceptor substrate ([2]; β-D-GlcNAc-1-Bz at 2 mM): 3.9 nmol/min/mL; Bovine milk β4Gal-T activity with acceptor substrate ([3]; β-D-GlcNAc-1-Bz at 0.625 mM): 3.4 nmol/min/µg; inhibition of β4Gal-T2 by high acceptor substrate concentrations [1]: inhibited at high concentrations; Km ([1]; β4Gal-T2, read-out: apparent Km for acceptor substrate): 160 µM; β4Gal-T2 activity with acceptor substrate ([1]; β-D-GlcNAc-1-Bz at 0.25 mM): 3.5 nmol/min/mL
6 | CC(=O)N[C@H]1C(O)O[C@H](CO)[C@@H](O)[C@@H]1O (stereo partly drawn) [D-GlcNAc] | 3.2 | 1.4 | 4.8 | inhibition of β4Gal-T2 by high acceptor substrate concentrations [1]: inhibited at high concentrations
7 | CC(=O)N[C@H]1[C@@H](OP(=O)(O)OP(=O)(O)OC[C@H]2O[C@@H](n3ccc(=O)[nH]c3=O)[C@H](O)[C@@H]2O)O[C@H](CO)[C@H](O)[C@@H]1O [UDP-GalNAc] |  |  |  | donor substrate utilisation by β4Gal-T2 (in words) [1]: did not utilise
8 | CC(=O)N[C@H]1[C@@H](OP(=O)(O)OP(=O)(O)OC[C@H]2O[C@@H](n3ccc(=O)[nH]c3=O)[C@H](O)[C@@H]2O)O[C@H](CO)[C@@H](O)[C@@H]1O [UDP-GlcNAc] |  |  |  | donor substrate utilisation by β4Gal-T2 (in words) [1]: did not utilise
9 | O=C[C@H](O)[C@@H](O)[C@H](O)[C@H](O)CO [glucose] |  |  |  | acceptor substrate of soluble β4Gal-T2 activity (in words) [1]: not an acceptor
10 | CC(=O)N[C@H]1[C@H](OCc2ccccc2)O[C@H](CO)[C@H](O)[C@@H]1O [βGalNAc-benzyl] |  |  |  | acceptor substrate of soluble β4Gal-T2 activity (in words) [1]: not
11 | *-D-GalNAc-1-(FAPSNYPAL) (not fully specified) [GalNAc-glycopeptide acceptor substrate] |  |  |  | β4Gal-T3 activity with acceptor substrate ([2]; glycopeptides at 0.1 mM): 0.0 nmol/min/mL; Bovine milk β4Gal-T activity with acceptor substrate ([3]; glycopeptides at 0.1 mM): 0.0 nmol/min/µg; β4Gal-T2 activity with acceptor substrate ([1]; glycopeptides at 0.1 mM): 0.0 nmol/min/mL
12 | Asialo-Fetuin: glycoprotein acceptor, asialo-fetuin (Sigma) |  |  |  | β4Gal-T3 activity with acceptor substrate ([2]; glycoproteins at 10 mg/ml): 0.0 nmol/min/mL; Bovine milk β4Gal-T activity with acceptor substrate ([3]; glycoproteins at 10 mg/ml): 0.1 nmol/min/µg; β4Gal-T2 activity with acceptor substrate ([1]; glycoproteins at 10 mg/ml): 0.2 nmol/min/mL
13 | Asialo-agalacto-Fetuin: glycoprotein acceptor; asialo-fetuin (Sigma) treated with bgalactosidase |  |  |  | β4Gal-T3 activity with acceptor substrate ([2]; glycoproteins at 10 mg/ml): 0.7 nmol/min/mL; Bovine milk β4Gal-T activity with acceptor substrate ([3]; glycoproteins at 10 mg/ml): 0.8 nmol/min/µg; β4Gal-T2 activity with acceptor substrate ([1]; glycoproteins at 10 mg/ml): 2.8 nmol/min/mL
14 | Bz-2-(2-β-D-GlcNAc)-α-D-GlcNAc | 2.6 | 9.9 | 1.3 | 
15 | Bz-*-D-GalNAc | 0.0 |  |  | 
16 | Lc3Cer |  |  |  | acceptor substrate of soluble β4Gal-T2 activity (in words) [1]: utilised
17 | α-lactalbumin |  |  |  | effect of α-lactalbumin on activity with GlcNAc ([3]; bovine milk enzyme, FIG. 4B): inhibited; concentration of α-lactalbumin to achieve maximum activity with Glc ([3]; bovine milk enzyme, glucose as acceptor): 0.1 mg/mL; effect of α-lactalbumin on activity with GlcNAc ([1]; β4Gal-T2, FIG. 4B): inhibited; concentration of α-lactalbumin to achieve maximum activity with Glc ([1]; β4Gal-T2, glucose as acceptor): 0.4 mg/mL
18 | β-D-GlcNAC-1-(FAPGSYPAL) (also: O-linked β-D-GlcNAc, site not given here) [synthetic O-linked βGlcNAc-glycopeptide] |  |  |  | β4Gal-T3 activity with acceptor substrate ([2]; glycopeptides at 0.1 mM): 0.9 nmol/min/mL; β4Gal-T2 activity with acceptor substrate ([1]; glycopeptides at 0.1 mM): 1.3 nmol/min/mL

Second part, led by results:

Row | β4Gal-T2 activity with acceptor substrate [1, 4] [nmol/min/mL] | β4Gal-T2 activity with acceptor substrate [1, 5] [nmol/min/mL] | β4Gal-T2 activity with acceptor substrate [1, 6] [nmol/min/mL] | Compound | also measured
19 | 0.8 | 0.4 | 1.5 | CC(=O)N[C@H]1[C@@H](Oc2ccccc2[N+](=O)[O-])O[C@H](CO)[C@@H](O)[C@@H]1O [o-Nph-α-D-GlcNAc] | 
20 | 0.0 |  |  | CC(=O)N[C@H]1[C@H](Oc2ccccc2[N+](=O)[O-])O[C@H](CO)[C@H](O)[C@@H]1O [o-Nph-β-D-GalNAc] | 
21 | 0.0 |  |  | O=[N+]([O-])c1ccccc1O[C@@H]1O[C@H](CO)[C@H](O)[C@H](O)[C@H]1O [o-Nph-β-D-Gal] | 
22 | 1.6 | 1.2 | 0.2 | CC(=O)N[C@@H]1[C@@H](O)[C@H](O)[C@@H](CO)O[C@H]1Sc1ccc([N+](=O)[O-])cc1 [p-Nph-1-thio-β-D-GlcNAc] | 
23 | 2.3 | 3.0 | 0.9 | CC(=O)N[C@H]1[C@H](Oc2ccc([N+](=O)[O-])cc2)O[C@H](CO)[C@@H](O)[C@@H]1O [p-Nph-β-D-GlcNAc] | 
24 | 11.3 | 8.5 |  | COC1OC(COC2OC(CO)C(O)C(O)C2NC(C)=O)C(O)C(O)C1O [β-D-CLcNAc-(1-6)-α-D-Man-1-OMe] | 
25 | 7.7 | 5.8 |  | COC1O[C@H](CO)[C@H](O)[C@H](O[C@@H]2O[C@H](CO)[C@H](O)[C@H](O)[C@H]2NC(C)=O)[C@H]1O (stereo partly drawn) [β-D-GlcNAc-(1-3)-β-D-Gal-1-OMe] | 

Source: patent US7374919B2 (GlycoZym ApS, priority 1998, dated 2008)
